Assay results reported in ChEMBL document CHEMBL5728996 (2022).

Assays:
[1] = biological target: T1, Adenosine receptor A2b (Homo sapiens, UniProt P29275); experiment: (§1) Activity Assay: Compounds (Adenosine Receptor modulators) and activity assay.
T1 sequence (P29275 whole entry): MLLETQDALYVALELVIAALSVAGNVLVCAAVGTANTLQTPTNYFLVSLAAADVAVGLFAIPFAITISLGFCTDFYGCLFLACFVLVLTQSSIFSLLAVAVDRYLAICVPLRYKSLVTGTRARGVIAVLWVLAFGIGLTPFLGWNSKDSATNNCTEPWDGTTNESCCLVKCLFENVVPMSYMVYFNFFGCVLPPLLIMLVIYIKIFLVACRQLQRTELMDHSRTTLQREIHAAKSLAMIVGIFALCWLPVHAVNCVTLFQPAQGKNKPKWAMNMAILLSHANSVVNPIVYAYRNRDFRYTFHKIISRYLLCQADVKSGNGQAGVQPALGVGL

[2] = biological target: T2, Adenosine receptor A3 (Homo sapiens, UniProt P0DMS8); experiment: as §1
T2 sequence (P0DMS8 whole entry): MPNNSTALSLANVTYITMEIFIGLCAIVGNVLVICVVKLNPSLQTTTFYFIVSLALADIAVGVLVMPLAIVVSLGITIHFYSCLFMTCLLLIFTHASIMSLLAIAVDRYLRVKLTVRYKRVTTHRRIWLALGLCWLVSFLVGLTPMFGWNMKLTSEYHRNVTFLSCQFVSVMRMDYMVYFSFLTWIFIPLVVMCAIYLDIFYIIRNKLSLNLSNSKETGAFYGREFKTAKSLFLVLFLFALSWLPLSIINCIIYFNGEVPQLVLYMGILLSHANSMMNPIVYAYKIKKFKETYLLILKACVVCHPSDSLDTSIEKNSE

[3] = biological target: T3, Adenosine receptor A1 (Homo sapiens, UniProt P30542); experiment: as §1
T3 sequence (P30542 whole entry): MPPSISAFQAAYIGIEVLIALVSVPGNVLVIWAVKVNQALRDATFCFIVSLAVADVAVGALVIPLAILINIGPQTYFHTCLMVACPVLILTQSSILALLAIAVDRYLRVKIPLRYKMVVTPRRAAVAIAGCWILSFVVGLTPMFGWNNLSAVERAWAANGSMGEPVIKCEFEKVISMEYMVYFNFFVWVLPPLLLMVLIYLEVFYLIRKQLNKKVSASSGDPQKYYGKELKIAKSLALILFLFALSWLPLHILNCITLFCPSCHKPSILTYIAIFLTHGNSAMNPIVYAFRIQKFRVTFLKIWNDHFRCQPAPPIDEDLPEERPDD

[4] = biological target: Adenosine receptor A2a (Homo sapiens, UniProt P29274); experiment: as §1; assay type: single protein
Adenosine receptor A2a, sequence (P29274 whole entry): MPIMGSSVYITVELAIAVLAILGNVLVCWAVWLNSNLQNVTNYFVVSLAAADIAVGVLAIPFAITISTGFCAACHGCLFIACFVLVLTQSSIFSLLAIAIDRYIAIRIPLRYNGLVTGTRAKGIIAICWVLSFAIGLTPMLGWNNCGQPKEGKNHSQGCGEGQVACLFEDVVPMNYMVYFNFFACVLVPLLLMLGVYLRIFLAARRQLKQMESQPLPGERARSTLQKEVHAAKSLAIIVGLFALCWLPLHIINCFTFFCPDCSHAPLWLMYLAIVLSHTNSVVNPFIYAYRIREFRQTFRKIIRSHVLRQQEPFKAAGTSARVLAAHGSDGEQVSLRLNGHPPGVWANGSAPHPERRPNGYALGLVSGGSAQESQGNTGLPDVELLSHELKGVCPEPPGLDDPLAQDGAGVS

| SMILES | IC50 [1] | IC50 [2] | IC50 [3] | IC50 [4] |
| --- | --- | --- | --- | --- |
| C[C@H](Nc1nc(C(=O)N[C@H]2CC[C@@H](O)C2)c2sccc2n1)c1ccccn1 | < 10 nM | > 500 nM | > 500 nM |  |
| O=C(c1nc(NCc2ccc(F)cn2)nc2ccsc12)N1CC[C@H](O)C1 | > 500 nM |  |  | > 500 nM |
| C[C@H](Nc1nc(C(=O)N2CC[C@@H](S(C)(=O)=O)C2)c2sccc2n1)c1ccccn1 |  |  |  | > 500 nM |
| COCCN1CCC(CNC(=O)c2nc(N[C@@H](C)c3ccccn3)nc3ccsc23)CC1 | > 500 nM |  |  | > 500 nM |
| COc1ccc(CNC(=O)c2nc(NCc3cncc(F)c3)nc3ccsc23)cn1 |  | > 500 nM | > 500 nM |  |
| C[C@H](Nc1nc(C(=O)N2CC(CN)C2)c2sccc2n1)c1cncc(F)c1 |  | > 500 nM | > 500 nM | > 500 nM |
| CCC(Nc1nc(C(=O)NCc2ccc(OC)nc2)c2sccc2n1)c1cccnc1 (configuration not stated) | > 500 nM |  |  |  |
| C[C@H](Nc1nc(C(=O)N2CC(N)C2)c2sccc2n1)c1cncc(F)c1 |  | > 500 nM | > 500 nM | > 500 nM |
| CC(C)(C)OC(=O)N1CCC[C@@H]1CNC(=O)c1nc(NCc2cncc(F)c2)nc2ccsc12 | > 500 nM |  |  | > 500 nM |
| CC(=O)Nc1ccc(CCNC(=O)c2nc(N[C@@H](C)c3cncc(F)c3)nc3ccsc23)cc1 |  | > 500 nM | > 500 nM | > 500 nM |
| C[C@H](Nc1nc(C(=O)NCCO)c2sccc2n1)c1cccnc1 |  | > 500 nM | > 500 nM |  |
| C[C@H](Nc1nc(C(=O)NCCc2ccccc2O)c2sccc2n1)c1cncc(F)c1 | < 10 nM |  |  |  |
| CC(=O)Nc1ccc(CCNC(=O)c2nc(N[C@@H](C)c3cccnc3)nc3cc(C)sc23)cc1 |  |  | > 500 nM | > 500 nM |
| O=C(c1nc(NCc2cncc(F)c2)nc2ccsc12)N1CCCC1 | < 10 nM | > 500 nM | > 500 nM |  |
| C[C@H](Nc1nc(C(=O)N2CC[C@@H](NC(=O)OC(C)(C)C)C2)c2sccc2n1)c1ccccn1 |  | > 500 nM | > 500 nM |  |
